Experimental data from patent US7138423B2, “Arylpyrrolidine derivatives as NK-1 /SSRI antagonists” (Bristol-Myers Squibb Company, priority 2004, dated 2006).
Structures can show the parent of a compound that is named as a salt.

Experiments:
[1] = target: T1, neurokinin-1 (NK-1) receptor (Homo sapiens, UniProt P25103); assay: NK-1 binding, [125I] Substance P competition, U373 cell membranes; conditions: for IC50: U373 membranes, Bolton Hunter [125I] Substance P displacement; for activity for NK-1: summary statement referring to Table 1
T1 construct: a human glioblastoma-astrocytoma cell line that endogenously expresses the neurokinin-1 (NK-1) receptor; endogenous in cells; host or cells: U373 human glioblastoma-astrocytoma cells (membranes)
T1 sequence (P25103 whole entry): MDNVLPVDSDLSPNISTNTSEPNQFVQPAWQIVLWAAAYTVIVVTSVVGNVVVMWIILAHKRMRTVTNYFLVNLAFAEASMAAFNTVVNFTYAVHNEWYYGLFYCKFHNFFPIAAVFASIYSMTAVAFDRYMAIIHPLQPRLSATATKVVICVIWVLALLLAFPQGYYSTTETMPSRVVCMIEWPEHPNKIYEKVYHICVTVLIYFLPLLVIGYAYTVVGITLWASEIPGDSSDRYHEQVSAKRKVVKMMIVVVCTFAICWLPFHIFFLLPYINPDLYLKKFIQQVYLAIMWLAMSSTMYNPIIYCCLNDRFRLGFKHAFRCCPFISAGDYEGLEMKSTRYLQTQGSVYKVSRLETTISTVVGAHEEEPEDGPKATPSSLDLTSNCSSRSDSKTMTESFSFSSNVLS
Method: U373 cells, a human glioblastoma-astrocytoma cell line that endogenously expresses the neurokinin-1 (NK-1) receptor, were grown in a monolayer culture at 37° C. in 5% CO2 and fed with Minimum Essential Medium (MEM) supplemented with 10% fetal bovine serum. Membranes were prepared as follows: Cells were washed twice with ice-cold phosphate-buffered saline (pH 7.4) and then incubated for 5 to 10 minutes with ice-cold 10 mM Tris buffer (pH 7.4) containing 5 mM EDTA. Cells were removed from plates, homogenized, and centrifuged at 32,000×g for 20 minutes. The resulting supernatant was discarded, and the pellet resuspended by homogenization in 50 mM Tris buffer (pH 7.4) containing 1 mM EDTA and centrifuged at 32,000×g for 20 minutes. The resulting supernatant was discarded, and the pellet resuspended by homogenization in NK-1 binding assay buffer (50 mM Tris-HCL (pH 7.4), 3 mM MnCl2, 200 μg/ml BSA, 5 μg/ml chymostatin, 40 μg/ml bacitracin and 4 μg/ml leupeptin).
On the day of an experiment the membrane preparation was thawed, homogenized and diluted with NK-1 binding assay buffer to the appropriate concentration. Competition binding assays were performed in 96 well plate format by incubating membranes (5–10 ug/well) with Bolton Hunter labeled [^125I] Substance P, at a concentration of […], and concentrations of drugs ranging from 10000 to 0.01 nM. Samples were incubated for 30 min at 20° C. then filtered through GF/B glass fiber filters (pretreated with 1% polyethyleneimine and 0.3% Triton X-100) using a Brandel cell harvester. The filters were then washed with 10 ml ice cold 50 mM Tris-HCL (pH 7.4) containing 3 mM MgCl2. Non-specific was defined in the presence of 2 μM L-733,060 (a non-peptide NK-1 antagonist). Amount of radioligand bound in the presence and absence of competitor was analyzed by plotting (−)log drug concentration versus the amount of radioligand specifically bound. The midpoint of the displacement curve (IC50, nM), signifies the potency. Ki values were calculated using the method of Cheng and Prusoff [Cheng, Y.-C. and Prusoff, W. H., Biochemical Pharmacology, Vol. 22, pp. 3099–3108, Pergamon Press (1973)].

[2] = target: T2, human serotonin transporters (Homo sapiens, UniProt P31645); assay: Serotonin transporter binding assay, [3H]-citalopram, HEK-hSERT membranes; conditions: for IC50: HEK-hSERT membranes, 1 nM [3H]-citalopram displacement, read-out: SERT IC50; for activity for SERT: summary statement referring to Table 1
T2 construct: expressed in transfected cells; host or cells: HEK-293 cells stably expressing hSERT (G418 selection), membranes
T2 sequence (P31645 whole entry): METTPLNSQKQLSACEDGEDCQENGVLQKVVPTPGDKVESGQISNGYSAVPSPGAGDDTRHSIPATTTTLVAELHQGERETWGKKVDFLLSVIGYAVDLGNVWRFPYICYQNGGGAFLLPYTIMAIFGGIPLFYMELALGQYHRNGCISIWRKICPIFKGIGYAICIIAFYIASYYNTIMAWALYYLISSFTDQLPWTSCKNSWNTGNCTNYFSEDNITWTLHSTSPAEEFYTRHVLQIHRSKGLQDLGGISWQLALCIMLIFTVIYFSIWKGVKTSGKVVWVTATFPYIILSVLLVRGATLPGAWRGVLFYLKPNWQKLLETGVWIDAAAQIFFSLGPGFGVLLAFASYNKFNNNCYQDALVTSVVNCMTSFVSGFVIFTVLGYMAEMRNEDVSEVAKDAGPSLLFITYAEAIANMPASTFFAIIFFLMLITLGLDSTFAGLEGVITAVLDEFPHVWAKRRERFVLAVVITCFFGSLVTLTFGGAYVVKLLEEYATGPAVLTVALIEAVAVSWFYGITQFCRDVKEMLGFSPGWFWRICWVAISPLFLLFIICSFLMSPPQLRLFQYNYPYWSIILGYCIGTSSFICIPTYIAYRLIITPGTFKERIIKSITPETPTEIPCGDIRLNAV
Method: Serotonin Transporter Binding Assay
HEK-293 cells that stably express human serotonin transporters (HEK-hSERT cells) were grown at 37° C. in 5% CO2 as a monolayer in medium consisting of EMEM supplemented with 10% fetal bovine serum and G418 sulfate (500 μg/ml). To prepare membranes for radioligand binding experiments, cells were rinsed twice with phosphate-buffered saline (138 mM NaCl, 4.1 mM KCl, 5.1 mM Na2PO4, 1.5 mM […], 11.1 mM glucose, pH 7.4). Cells were transferred from plates to polypropylene tubes (16×100 mm), centrifuged at 1,200×g for 5 min and were frozen at −80° C. until assay. Following centrifugation, pellets were resuspended by homogenization in buffer consisting of 50 mM Tris (pH 7.7 at 25° C.), 120 mM NaCl and 5 mM KCl and then centrifuged at 32,000×g for 10 min. Following centrifugation, supernatants were discarded and pellets were resuspended in buffer consisting of 50 mM Tris (pH 7.4 at 25° C.), 150 mM NaCl and 5 mM KCl. Membrane homogenates (200 μl/plate) were incubated with 1 nM [^3H]-citalopram (specific activity=85 Ci/mmol) and increasing concentrations of test compounds for 1 hr at 25° C. in a total volume of 250 μl. The assay buffer consisted of 50 mM Tris (pH 7.4 at 25° C.), 120 mM NaCl and 5 mM KCl (pH 7.4 with conc. HCl). Plates were incubated for 1 hr at 25° C., then filtered through 0.5% PEI treated Whatman GF/B filters using a Brandel cell harvester. Filters were washed three times with 3 ml of ice-cold Tris wash buffer. Non-specific binding was defined with 10 μM fluoxetine. Amount of radioligand bound in the presence and absence of competitor was analyzed by plotting (−)log drug concentration versus the amount of radioligand specifically bound. The midpoint of the displacement curve (IC50, nM), signifies the potency. Ki values were calculated using the method of Cheng and Prusoff [Cheng, Y.-C. and Prusoff, W. H., Biochemical Pharmacology, Vol. 22, pp. 3099–3108, Pergamon Press (1973)].

IC50 [1] | IC50 [2] | activity for SERT [2] | activity for NK-1 [1] | Compound
20 to 100 nM |  |  |  | FC(F)(F)c1cc(COC[C@@H]2CNC[C@H]2c2ccccc2)cc(C(F)(F)F)c1 (relative stereo) [Example 1, Trans-3-((3,5-bis(trifluoromethyl)benzyloxy)methyl)-4-phenylpyrrolidine hydrochloride]
 | 20 to 100 nM |  |  | Fc1cc(F)cc(COC[C@@H]2CNC[C@H]2c2ccccc2)c1 (relative stereo) [Example 4, Trans-3-((3,5-difluorobenzyloxy)methyl)-4-phenylpyrrolidine]
 | 100 to 300 nM |  |  | FC(F)(F)c1ccccc1COC[C@@H]1CNC[C@H]1c1ccccc1 (relative stereo) [Example 5, Trans-3-((2-trifluorobenzyloxy)-methyl)-4-phenylpyrrolidine]
 | 20 to 100 nM |  |  | FC(F)(F)c1cccc(COC[C@@H]2CNC[C@H]2c2ccccc2)c1 (relative stereo) [Example 6, Trans-3-((3-trifluoromethylbenzyloxy)-methyl)-4-phenylpyrrolidine]
100 to 300 nM |  |  |  | FC(F)(F)c1cc(COC[C@@H]2CNC[C@H]2c2c[nH]c3ccccc23)cc(C(F)(F)F)c1 (relative stereo) [Example 8, Trans-3-(4-((3,5-bis(trifluoromethyl)benzy-loxy)methyl)pyrrolidin-3-yl)-1H-indole]
 | 20 to 100 nM |  |  | Cc1cc(C)cc(OC[C@@H]2CNC[C@H]2c2ccccc2)c1 (relative stereo) [Example 11, Trans-3-((3,5-dimethylphenoxy)methyl)-4-phenylpyrrolidine hydrochloride]
100 to 300 nM |  |  |  | FC(F)(F)c1cc(OC[C@@H]2CNC[C@H]2c2c[nH]c3ccccc23)cc(C(F)(F)F)c1 (relative stereo) [Example 12, Trans-3-(4-((3,5-bis(trifluoromethyl)phenoxy)methyl)pyrrolidin-3-yl)-1H-indole]
100 to 300 nM | 20 to 100 nM | have activity | have activity | Cc1cc(C)cc(COCC2CNCC2c2ccccc2)c1 (stereo not drawn) [Example 2, Trans-3-((3,5-dimethylbenzyloxy)-methyl)-4-phenylpyrrolidine]
100 to 300 nM | 20 to 100 nM | have activity | have activity | FC(F)(F)c1cc(OCC2CNCC2c2ccccc2)cc(C(F)(F)F)c1 (stereo not drawn) [Example 10, Trans-3-((3,5-bis(trifluoromethyl)phenoxy)methyl)-4-phenylpyrrolidine trifluoroacetic acid salt]
